# Laboratory results from patent US5695761A, “Suppression of nitric oxide production by osteopontin” (Rutgers University, priority 1993, dated 1997).
# Like-named read-outs stand apart in the source and are kept apart here.
# Columns and labels:
# [1] = system: mouse primary kidney PTE cells; test: Nitrite production over 3 days in PTE cells treated with angiotensin II; format: cell-based; settings: for effect on A II-induced nitrite production: 3 days incubation with A II; for nitrite production: agent alone, 3 days incubation
# Experimental: FIG. 7. Angiotensin II enhances nitrite production by a process that can be reversed by OPN in PTE cells. Primary mouse kidney proximal tubule epithelial cells were grown as described in the Examples, infra. Cell were cultured and the medium collected after three days of growth in medium with the indicated supplements.
# Preparation of Cells. CD-1 mice aged 4-6 weeks were obtained from Laboratory Animal Services of Nelson Biological Laboratory, Rutgers University, New Jersey. Primary mouse kidney proximal tubule epithelial (PTE) cells were prepared as previously described in Example 1. For NO measurement, cells were subcultured into 24-well tissue culture plates (Linbro, Hamden, Conn.) at 5×10^4 cells per well and incubated overnight for cell attachment. After removal of the medium, the cells were washed twice with Dulbecco's phosphate buffered saline (0.2 g/l KCl, 0.2 g/l KH2 PO4, 8 g/l NaCl, 1.15 g/l Na2 HPO4) and re-fed phenol red-free RPMI 1640 medium (Gibco) containing 10 μg/ml tetrahydrobiopterin (ICN Biochemicals, Cleveland Ohio).
# Measurement of NO Production. Synthesis of NO in the medium over a 3-day period was determined by the accumulation of nitrite, a stable oxidized product of NO (Marletta, 1988, Chem. Res. Toxicol. 1:249-257). Nitrite was measured with the Griess reagents using sodium nitrite as standard, as described in Example 1.
# [2] = system: primary mouse PTE cells; test: Intracellular calcium mobilization (Indo-1 AM) in PTE cells; format: cell-based
# Experimental: FIGS. 9A-D. Induction of calcium mobilization by ionomycin, angiotensin II and osteopontin in PTE cells. Cells were incubated with 1 μM Indo-1 AM [1-(2-amino-5-(6-carboxyindol-2-yl)phenoxy)-2-(2'-amino-5'-methylphenoxy)ethane-N,N,N',N'-tetraacetic acid) and analyzed on a Meridian 570 Anchored Cell Analysis System (ACAS) equipped with an Innova 90 5-W laser adjusted to an output of 100 mW. Calcium mobilization was quantified by scanning single 150×150 μm fields containing about 10 cells every 30 s for a total of 10 min and quantifying the emission at 500 nm (calcium-free Indo-1) and 400 nm (calcium-bound Indo-1). After 1 min, the cells were stimulated with (A) control, (B) 10 μM ionomycin, (C) […] angiotensin II, and (D) 2 nM or 0.1 nM OPN.
# Measurement of intracellular calcium mobilization. Primary mouse PTE cells were subcultured onto collagen-coated Nunc coverglass chambers (Nunc, Inc., Naperville, Ill.). Intracellular calcium mobilization was monitored using a fluorescent, calcium-sensitive indicator Indo-1-acetoxymethyl ester (Indo-1 AM) (Molecular Probes, Eugene, Oreg.) and qualified on a Meridian 570 Anchored Cell Analysis (ACAS) equipped with an Innova 90-5W laser adjusted to an output of 100 mW. Cells were washed with HBSS containing 0.3% bovine serum albumin (BSA) and incubated with 1 μM Indo-1 AM at 37° C. for 30 min. Then, the cells were washed 3 times and 1 ml of HBSS containing 0.3% BSA was added. The calcium ratio was determined by scanning single 150×150 μm field containing about 10 cells every 30 sec for a total of 10 min and recording the emission at 500 nm (calcium-free Indo-1) and 400 nm (calcium-saturated Indo-1). Intracellular calcium concentrations were determined by generating a standard curve using a known calcium solution (Gardner et al., 1993, J. Leukocyte Biol. 53:190-196). All data were analyzed with Meridian ACAS statistical software.
# [3] = system: constitutive nitric oxide synthase (cNOS) mRNA; test: Northern blot analysis of cNOS mRNA in PTE cells; format: cell-based, mouse; settings: 12 h
# Experimental: FIGS. 8A and 8B. Norther blot analysis of constitutive nitric oxide synthase (cNOS) mRNA expression. (A) Autoradiogram of RNA separated by agarose-formaldehyde gel electrophoresis, transfered to nylon membranes, and probed with ^32 P-labelled oligonucleotide probes as described in Example 2, infra. (B) Reltive intensities of cNOS to 18S rRNA quantified by densitometry. Cells were treated with buffer, angiotensin (1 μM), angiotensin with osteopontin (0.1 and 0.001 nM), or ionomycin, as indicated in B. The blots in (A) correspond to the bars in (B).
# Northern Blot Analysis. Total RNA was isolated using TRI reagent (Molecular Research Center, Cincinnati, Ohio) after 12 h stimulation in the medium (see Example 1). Rat brain constitutive nitric oxide synthase (cNOS) cDNA was obtained as described (Bredt et al., 1991, Nature 351:714-718). Five μg of total RNA was separated on an agarose-formaldehyde gel, transferred onto a nylon membrane (GeneScreen Plus, NEN Research Products, Du Pont, Boston, Mass.) and hybridized with a ^32 P-labeled cNOS cDNA probe. The blot was washed 3 times with 0.5×SSC, 0.1% SDS at 65° C. and autoradiographed for 1 to 3 days. The membrane was stripped and successively hybridized to a mouse 18S rRNA probe. The relative intensities of cNOS to 18S rRNA in the resulting autoradiograms were quantified by densitometry (Pharmacia LKB, UltraScan XL).
# [4] = system: inducible nitric oxide synthase (iNOS) mRNA; test: Northern blot analysis of iNOS mRNA in stimulated PTE cells; format: cell-based, mouse; settings: measured at 8 h, subconfluent PTE cells
# Experimental: FIGS. 3A and 3B. Inhibition of inducible NO-synthase (iNOS) gene induction by OPN. A) Northern blot analysis of iNOS mRNA and 18s rRNA levels in primary mouse kidney epithelial cells 8 h after treatment. B) Accumulation of nitrite in the medium 24 h after treatment. Values are the mean±standard error from three separate plates. Lane 1: control; lanes 2, 4 and 5: stimulated with 100 ng/ml LPS plus 100 U/ml γIFN; lanes 3 and 4: treated with 1 pM OPN; lanes 5 and 6: treated with 100 pM OPN.
# Northern blot analysis. Total RNA was isolated using the TRI reagent (Molecular Research Center, Cincinnati, Ohio). The RNA (5 μg) was fractionated on formaldehyde-agarose gels, blotted and probed using standard procedures (Sambrook et al., 1989, supra). The mouse cDNA corresponding to the macrophage inducible nitric oxide synthase gene (iNOS) has been described (Lyons, 1992, J. Biol. Chem. 267:6370-74).
# [5] = system: iNOS protein; test: Immunofluorescence analysis of iNOS protein in PTE cells; format: cell-based, mouse; settings: 100 pM OPN, LPS 100 ng/ml and γIFN 100 U/ml, 48 h
# Experimental: FIGS. 4A-D. OPN-induced suppression of iNOS protein in PTE cells. Cells were fixed and permeabilized by incubation of 30 min with 0.4 mM lysophosphatidylcholine in 1% buffered formalin. After washing three times with phosphate-buffered saline, cells were blocked with 0.1% bovine serum albumin in phosphate-buffered saline and then incubated for 4 h first with a 1:10,000 dilution of rabbit peptide antibody to the C-terminal 10 amino acids of iNOS. After washing, the cells were incubated with FITC-conjugated goat-anti rabbit secondary antibody (Cappel, West Chester, Pa.). After an additional 30 min, the cells were washed and analyzed for fluorescence intensity using a Meridian ACAS anchored cell analysis system. A) Upper left, untreated control cells; B) upper right, cells treated for 48 h with LPS (100 ng/ml) and γIFN (100 U/ml); C) lower left, cells treated for 48 h with OPN (100 pM); D) lower right, cells treated for 48 h with LPS, γIFN and OPN. The color bar represents relative fluorescence intensity on the four-decade log scale with white being the most intense.
# [6] = system: primary mouse kidney proximal tubule epithelial cells; test: Nitrite accumulation (Griess reagent) in PTE cells stimulated with LPS and γ-IFN; format: cell-based; settings: for nitrite production relative to the LPS and γ-IFN-stimulated cells: measured at 24 h; for effect on LPS and γ-IFN-induced nitrite (NO) production: agent alone on stimulated cells, nitrite at 24 h
# Experimental: Cell culture. […] Clin. Invest. 91:2138-43). Briefly, slices of cortex from decapsulated kidneys were washed in unsupplemented RPMI 1640 and cut int 1-2 mm^3 pieces, which were then incubated for 20 min. at 37° C. in Krebs-Henseleit buffer (Sigma Chemical Co., St. Louis, Mo.) supplemented with 10 mM HEPES (pH 7.5), 1 g/l D-glucose, 200 mg/1 sodium pyruvate, 0.125 mg/ml collagenase (Type 1A, Sigma), and 0.6 U/ml dispase (Boehringer Mannheim Biochemica, Indianapolis, Ind.). The digested cortex was centrifuged at 70×g for 3 min and the cells resuspended in RPMI 1640 supplemented with 10 mM HEPES (pH 7.5), 5 μg/ml human transferrin, 50 nM dexamethasone, 5 μg/ml insulin (Gibco, Gaithersberg, Md.), 3% fetal bovine serum, 100 U/ml penicillin and 100 μg/ml streptomycin. For NO measurements, cells were subcultured into 24-well culture plates (Linbro, Hamden, Conn.) at 5×10^4 cells/16-mm well and incubated overnight. After removal of the medium, the cells were washed 3 times with Dulbecco's phosphate buffered saline (Sigma D5652), and re-fed with phenol red-free RPMI 1640 medium containing 2 mM […] and 10 μg/ml tetrahydrobiopterin (ICN Biochemicals, Cleveland, Ohio) in the presence or absence of 100 ng/ml lipopolysaccharide (LPS) (Sigma) and 100 U/ml recombinant mouse γ-interferon (γ-IFN). Measurement of NO (as NO2^-) production. Nitric oxide is a short-lived reactive nitrogen intermediate that in aqueous solution in the absence of oxyhemoproteins or superoxide, is oxidized primarily to nitrite (Ignarro et al., 1993, Proc. Natl. Acad. Sci. U.S.A. 90:8103-07). Under such conditions NO production can be assessed by the accumulation of nitrite in the medium. […] Biochem. 126:131-138).
# [7] = system: osteoclasts; settings: Zimolo et al. 1993; cited from earlier work
# [8] = system: rabbit kidney PTE cells; settings: primary cultures of rabbit kidney PTE cells; Norman et al. 1987; cited from earlier work
compound,measurement,setting,value
"OPN: Recombinant human osteopontin, secreted 44 kDa RGD-containing phosphoprotein, purified from transfected MH2 human embryonic kidney cells",effect on A II-induced nitrite production,[1],almost completely blocked
same,concentration dependence of calcium reduction,[2]; 2 nM compared with 0.1 nM OPN,the smaller concentration of OPN was more potent in reducing calcium levels
same,calcium mobilization,[2]; 2 nM or 0.1 nM OPN,a reduction in the cytosolic free calcium
same,effect on amount of A II-induced cNOS mRNA,[3]; OPN 0.1 nM or 1 pM with A II,only a modest effect
same,"level of the 4 kb mRNA species (iNOS mRNA), normalized to 18 S rRNA",[4]; 1 pM OPN added simultaneously with LPS and γ-IFN,54%
same,"level of the 4 kb mRNA species (iNOS mRNA), normalized to 18 S rRNA",[4]; 100 pM OPN added simultaneously with LPS and γ-IFN,31%
same,iNOS protein concentration in stimulated cells,[5],diminished concentration of iNOS protein
same,nitrite production relative to the LPS and γ-IFN-stimulated cells,[6]; 1 pM OPN added simultaneously with inducers,45%
same,nitrite production relative to the LPS and γ-IFN-stimulated cells,[6]; 100 pM OPN added simultaneously with inducers,24%
same,time-dependence of inhibition of NO production,"[6]; OPN 100 pM added 60 min prior to γ-IFN and LPS, nitrite after 24 h",more inhibitory than when added simultaneously
same,effective concentration for suppression of NO production,[6]; confluent cells,required higher concentrations
same,effective concentration for suppression of NO production,[6]; subconfluent PTE cells,~ 10 pM
C[C@H](CCC(=O)O)C[C@H](C)C[C@H](C)C(=O)/C=C(\O)[C@H](C)C[C@H](C)C/C=C/[C@@H](C)[C@@H](O)[C@@H](C)[C@@H](O)C[C@@H]1CC[C@@](C)([C@H]2CC[C@@](C)([C@@H](C)O)O2)O1 [Ionomycin],nitrite production,[1],increased nitrite production
same,calcium mobilization,[2]; 10 μM ionomycin,an increase in cytosolic free calcium
same,cNOS mRNA abundance,[3]; agent alone,greatly increase
"CNC(=N)NCCC[C@H](N)C(=O)O [L-NMA, N^G -methyl-L-arginine, reference compound]",effect on A II-induced nitrite production,[1],inhibited the nitrite production induced by A II
same,effect on LPS and γ-IFN-induced nitrite (NO) production,[6],Inhibition of nitrite accumulation
Ac-PTVDVPDGRGDSLAYGLRSK-NH2 [OPP],effect on LPS and γ-IFN-induced nitrite (NO) production,[6],effective at reducing LPS and γ-IFN-induced NO production
"OPN (purified from urine): OPN purified from urine, used by Zimolo et al. (cited)",concentration raising intracellular free Ca++ level,[7],1 pM
"A II: angiotensin (the x-mer peptide produced from angiotensinogen), obtained from Sigma (DRVYIHPF; Angiotensin-2; UniProt P01019 25-32, looked up)",nitrite production,[1],dose-dependent increase in nitrite accumulation
same,calcium mobilization,[2],a fast and transient rise in cytosolic free calcium levels
same,calcium mobilization,"[2]; 1 μM, within 10 min",only a delayed and small transient response in calcium mobilization
same,concentration necessary to induce a transient rise in cytosolic free calcium,[8],5 µM
same,enhancement of cNOS mRNA,"[3]; angiotensin 1 μM, densitometry relative to rRNA",3.5 fold
